As usually defined, the Ki is a measure of affinity in units of concentration, obtained from inhibition or displacement. High values mean lower affinity, low ones higher affinity.

For assay [1], the target named is T1, human B2 receptor cloned and transfected in a stable manner into a CHO cell line (Homo sapiens, UniProt P30411).
T1 construct: expressed in transfected cells
T1 sequence (P30411 1-391): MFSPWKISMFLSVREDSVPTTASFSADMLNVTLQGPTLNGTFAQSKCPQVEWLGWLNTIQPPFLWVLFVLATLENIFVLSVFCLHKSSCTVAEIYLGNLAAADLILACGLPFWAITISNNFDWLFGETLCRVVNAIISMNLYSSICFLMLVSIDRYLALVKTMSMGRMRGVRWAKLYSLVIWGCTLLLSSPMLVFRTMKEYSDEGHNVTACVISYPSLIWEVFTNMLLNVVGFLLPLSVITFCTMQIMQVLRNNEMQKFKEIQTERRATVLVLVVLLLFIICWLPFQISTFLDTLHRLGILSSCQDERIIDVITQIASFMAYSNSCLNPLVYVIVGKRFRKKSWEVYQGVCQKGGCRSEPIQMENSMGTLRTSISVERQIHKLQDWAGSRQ
Put plainly: Binding to the cloned human bradykinin B2 receptor (CHO cell line). The conditions noted are these: affinity for cloned human B2 receptor stably transfected into CHO cells.

Assay [2] addresses T2, bradykinin B2 receptor (segments of human umbilical vein) (Homo sapiens, UniProt P30411).
T2 construct: determination of a pD2 value on segments of human umbilical vein; from tissue; host or cells: segments of human umbilical vein
T2 sequence (P30411 1-391): T1 sequence (P30411 1-391)
Description: B2 receptor-dependent contraction of human umbilical vein segments. It is filed as cell-based. The conditions noted are these: calculated from concentrations causing B2 receptor-dependent contraction of human umbilical vein; read-out: pD2 (converted).

In assay [1], `Cc1ccc2c(c1)SC[C@@H](NC(=O)[C@H](CO)NC(=O)[C@H](Cc1cccs1)NC(=O)CNC(=O)[C@@H]1C[C@@H](O)CN1C(=O)[C@@H]1CCCN1C(=O)[C@H](CCCNC(=N)N)NC(=O)[C@H](N)CCCNC(=N)N)C(=O)N2CC(=O)N[C@@H](CCCNC(=N)N)C(=O)O` [Ex. 5, H-D-Arg-Arg-Pro-4Hyp-Gly-Thi-Ser-DBT(CH3)-Arg-OH] gave a Ki of 6 nM. Moreover, the EC50 in assay [2] was 56.2 nM. `N=C(N)NCCC[C@H](NC(=O)CN1C(=O)[C@H](NC(=O)[C@H](CO)NC(=O)[C@H](Cc2ccccc2)NC(=O)CNC(=O)[C@@H]2CCCN2C(=O)[C@@H]2CCCN2C(=O)[C@@H](N)CCCNC(=N)N)CSc2ccccc21)C(=O)O` [Ex. 3, H-Arg-Pro-Pro-Gly-Phe-Ser-DBT(M)-Arg-OH] had a Ki in assay [1] of 12.9 nM. This counts as double-digit nanomolar. In assay [1], `N=C(N)NCCC[C@@H](N)C(=O)N[C@@H](CCCNC(=N)N)C(=O)N1CCC[C@H]1C(=O)N1C[C@H](O)C[C@H]1C(=O)NCC(=O)N[C@@H](Cc1cccs1)C(=O)N[C@@H](CO)C(=O)N[C@@H]1COc2ccccc2N(CC(=O)N[C@@H](CCCNC(=N)N)C(=O)O)C1=O` [Ex. 4, H-D-Arg-Arg-Pro-4Hyp-Gly-Thi-Ser-DBO(H)-Arg-OH] gave a Ki of 2.5 nM. In addition, the EC50 in assay [2] was 7940 nM. For `N=C(N)NCCC[C@@H](N)C(=O)N[C@@H](CCCNC(=N)N)C(=O)N1CCC[C@H]1C(=O)N1C[C@H](O)C[C@H]1C(=O)NCC(=O)N[C@@H](Cc1cccs1)C(=O)N[C@@H](CO)C(=O)N[C@@H]1CSc2ccccc2N(CC(=O)N[C@@H](CCCNC(=N)N)C(=O)O)C1=O` [Ex. 1, H-D-Arg-Arg-Pro-4Hyp-Gly-Thi-Ser-DBT(H)-Arg-OH], in that order: 0.7 nM and 200 nM. For `N=C(N)NCCC[C@H](NC(=O)CN1C(=O)[C@H](NC(=O)[C@H](CO)NC(=O)[C@H](Cc2cccs2)NC(=O)CNC(=O)[C@@H]2C[C@@H](O)CN2C(=O)[C@@H]2CCCN2C(=O)[C@H](CCCNC(=N)N)NC(=O)[C@@H](N)CCCCN)CSc2ccccc21)C(=O)O` [Ex. 2, H-Lys-Arg-Pro-4Hyp-Gly-Thi-Ser-DBT(H)-Arg-OH], in that order: 0.07 nM and 79.4 nM.

The record behind these values is patent US6316413A (Fournier Industrie et Sante, priority 1996, dated 2001).
